Calls of active or inactive are those of the source. How the calls were made is not given here.
The compounds below were run against Bcl-2-related protein A1 (Homo sapiens) (UniProt Q16548) (assay: Bfl-1/Bim complex disruptors – biochemical, multiplexed, bead-based flow cytometry, dose response (AID 1320; further: test concentration not given here)). Settings: Bim peptide-Bfl-1 binding, fluorescence.
Sequence of Bcl-2-related protein A1 (Homo sapiens) (Q16548 whole entry, looked up): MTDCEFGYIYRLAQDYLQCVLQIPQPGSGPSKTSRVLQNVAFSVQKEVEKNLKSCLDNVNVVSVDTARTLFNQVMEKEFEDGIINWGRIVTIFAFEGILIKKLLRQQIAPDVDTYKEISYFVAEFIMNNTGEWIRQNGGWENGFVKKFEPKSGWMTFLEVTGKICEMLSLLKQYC

| SMILES | percent span (inhibition) |
| --- | --- |
| COc1cccc(C(=O)/C=C/Nc2ccc(S(=O)(=O)Nc3onc(C)c3C)cc2)c1 | inactive |
| O=C(CNC(=O)c1ccc(S(=O)(=O)N2CCCC2)cc1)N/N=C/c1ccc(Cl)cc1Cl | inactive |
| O=C(Nc1ccccc1)Nc1ccc2ncoc2c1 | inactive |
| Cc1cccn2c(=O)c3cc(C(N)=S)c(=N)n(CCCN4CCOCC4)c3nc12 | inactive |
| CC(C)NS(=O)(=O)c1ccc(OCC(=O)Nc2ccc(F)cc2)cc1 | inactive |
| Cc1cc(C)nc(/N=C(\N)N2CCc3ccccc32)n1 | inactive |
| COP(=O)(CC(=O)O)c1ccccc1 (centres undefined) | inactive |
| CC(=O)Nc1ccc(NC2=C(Cl)C(=O)c3ccccc3C2=O)cc1 | inactive |
| O=C(C1=NN[C@@H]2C(=O)N(c3ccccc3C(F)(F)F)C(=O)[C@H]12)c1ccc2ccccc2n1 | inactive |
| COc1ccccc1Oc1ccc2c(c1)C(=O)N(c1ccccc1)C2=O | inactive |
| CCOc1ccc(C2=Nn3c(nnc3-c3ccco3)SC2)cc1 | inactive |
| CN(C)C(Cc1ccccc1)C(=O)c1cccs1 (centres undefined) | inactive |
| COc1ccc(OC)c2sc(NC(=O)c3ccc(Br)s3)nc12 | inactive |
| Cc1ccc2cc(C)c(Sc3nnnn3-c3ccccc3)nc2c1 | inactive |
| Cc1ccc(OCC(=O)NCc2ccccn2)c(Br)c1 | inactive |
| CCOCCOc1nc2c(c(=O)n(C)c(=O)n2C)n1CCc1ccccc1 | inactive |
| O=C(NC1=C(Nc2ccc(F)cc2)C(=O)c2ccccc2C1=O)c1ccc(Cl)cc1 | inactive |
| CC1=CC(=O)c2ccccc2C1=O | inactive |
| COc1ccc(C)cc1-n1c(=O)c2ccccc2c2ccccc2c1=O | inactive |
| CCc1nnc(NS(=O)(=O)c2ccc(N=CC3=C(O)CC(C)(C)CC3=O)cc2)s1 | inactive |
| CCN1CCN(CC(=O)c2c[nH]c3ccc(C)cc23)CC1 | inactive |
| COc1ccc(NC(=O)C2=C(C)NC(=O)NC2c2cccc(OC)c2OC)c(OC)c1 (centres undefined) | inactive |
| COc1cc2[nH]c(=S)nc(NCCc3ccc(S(N)(=O)=O)cc3)c2cc1OC | inactive |
| CCc1ccc(NC(=O)Cc2ccc(OC)cc2)cc1 | inactive |
| CN1CCN(c2ccccc2N)CC1 | inactive |

| SMILES | percent span (inhibition) |
| --- | --- |
| CC(C)c1ccc(/C=N/NC(=O)c2ccccc2Cl)cc1 | inactive |
| CCOC(=O)C1=C(CP(=O)(c2ccccc2)c2ccccc2)NC(=O)NC1c1ccc(OC)cc1 (centres undefined) | inactive |
| Cn1c(CCNC(=O)C2CCCCC2)nc2cc(NC(=O)c3cccs3)ccc21 | inactive |
| Cc1ccc(SCCC(=O)Nc2ccc(Br)c(C)c2)cc1 | inactive |
| Cc1cccc(N2CCN(C(=S)Nc3ccc4nc(N5CCN(C)CC5)cc(C)c4c3)CC2)c1C | inactive |
| CN1CCN(c2ccc(N)cc2)CC1 | inactive |
| COCCCn1c(N)c(C(=O)Nc2sc3c(c2C(=O)OC)CCCC3)c2nc3ccccc3nc21 | inactive |
| COc1ccc(NC(=O)c2c(F)cccc2F)cc1S(=O)(=O)Nc1ccc(Br)cc1 | inactive |
| CCN(CC)c1ccc(NC(=O)c2ccc(=O)[nH]c2)cc1S(=O)(=O)Nc1ccccc1OC | inactive |
| Cc1[nH]n(C(N)=S)c(=O)c1N=Nc1ccc(S(=O)(=O)N2CCCCCC2)cc1 | inactive |
| COc1ccc(S(=O)(=O)NCCSc2ccc(Cl)cc2)cc1OC | inactive |
| Cc1cccc(-n2c(-c3ccncc3)n[nH]c2=S)c1 | inactive |
| COCCNC(=S)Nc1cc(OC)c(OC)cc1C#N | inactive |
| CCOC(=O)CCCNC(=O)c1cncc(O)c1 | inactive |
| CC1Cc2ccccc2N1C(=O)CSc1nnnn1-c1ccc2c(c1)OCCO2 (centres undefined) | inactive |
| Cc1ccc(/C=C2\CCCC3=C2NC(=S)NC3c2ccc(C)cc2)cc1 (centres undefined) | inactive |
| COC(=O)c1cccc(-n2c(C)cc(C=O)c2C)c1 | inactive |
| COc1ccc(C(=O)/C=C/c2cc(OC)c(O)c(OC)c2)c(F)c1 | inactive |
| O=C(Nc1cccc(-c2ccc3nncn3n2)c1)c1ccco1 | inactive |
| COc1ccc(-c2csc(NC(=O)/C(N=Nc3ccccc3)=C(\C)O)n2)cc1 | inactive |
| CCOCCCn1c(N)c(C(=O)Nc2sc3c(c2C(=O)OC)CCCC3)c2nc3ccccc3nc21 | inactive |
| CCCc1nnc2n1N=C(c1ccc(-c3cc(Cl)ccc3Cl)o1)CS2 | inactive |
| CC(/C=C/C(=O)c1ccc(C)cc1)=C\c1ccccc1 | inactive |
| Cc1[nH]nc(SCC(=O)NCc2ccc(F)cc2)c1[N+](=O)[O-] | inactive |

— PubChem BioAssay AID1320 (NMMLSC, 2008)
